This note sets out measurements from patent US11459308B2 (priority 2016, dated 2022).

The subject of data set [1] is rVSV-EBOV GP. Nature of the data set: microbe, parasite or virus in culture. Type of data set: cell-based, Zaire Ebolavirus. The conditions noted are these: Zaire ebolavirus, read-out: rVSV-EBOV IC50.
The subject of data set [2] is authentic EBOV (EBOV-Zaire 1995). Nature of the data set: microbe, parasite or virus in culture. Type of data set: cell-based, Ebola virus. The note with it: Zaire ebolavirus, Vero, 48 h, read-out: infectious EBOV-Z IC50.
A short description of data set [3]: in vitro. The note with it: African green monkey.

In the case of `CN(C)CCNc1ccc2ncn(C(c3ccccc3)c3ccccc3)c2c1` [MBX 4251, N^1-(1-benzhydryl-1H-benzo[d]imidazol-6-yl)-N^2,N^2-dimethylethane-1,2-diamine], the IC50 (as a rule, the point on the concentration scale where inhibition reaches its midpoint) amounted to 2010 nM in data set [1] and 2660 nM in data set [2]. For the same molecule, in data set [3], the CC50 is 105000 nM.

For `O=[N+]([O-])c1ccc(N2CCN(Cc3ccccc3)CC2)cc1NC(c1ccccc1)c1ccccc1` [MBX 3569, 1-(benzhydrylamino)-5-(4-benzylpiperazin-1-yl)-2-nitrobenzene], the results for the concentration for half-maximal inhibition (IC50) in data set [1] and in data set [2] were more than 25000 nM and more than 20000 nM, respectively. This molecule yielded a CC50 in data set [3] of more than 200000 nM.

As for `CC(C)N(CCNc1ccc([N+](=O)[O-])c(NC(c2ccccc2)c2ccccc2)c1)C(C)C` [MBX 4336, N^3-benzhydryl-N^1-(2-(diisopropylamino)ethyl)-4-nitrobenzene-1,3-diamine], the IC50 in data set [1] was found to be 390 nM; in data set [2], 560 nM. Further, the CC50 in data set [3] was found to be 12000 nM.

Consider `CN1CCN(c2ccc([N+](=O)[O-])c(NC(c3ccccc3)c3ccccc3)c2)CC1` [PPZ-1, N-benzhydryl-5-(4-methylpiperazin-1-yl)-2-nitroaniline], for which the IC50 in data set [1] is 1200 nM; in data set [2] it was 2300 nM. The molecule further gave a CC50 in data set [3] of 61000 nM.

For the molecule `CN1CCN(c2ccc3nnn(C(c4ccccc4)c4ccccc4)c3c2)CC1` [MBX 3537A, 1-benzhydryl-6-(4-methylpiperazin-1-yl)-benzo[d][1,2,3]triazole], the IC50 in data set [1] and in data set [2] was 2300 nM in each case. The same molecule showed a CC50 in data set [3] of 41000 nM.

Turning to `c1ccc(C(c2ccccc2)n2cnc3ccc(N4CCN5CCCC5C4)cc32)cc1` (stereo not drawn) [MBX 4210, 1-benzhydryl-6-(hexahydropyrrolo[1,2-a]pyrazin-2(1H)-yl)-1H-benzo[d]imidazole], the values for the IC50 in data set [1] and in data set [2] were 1600 nM and 1800 nM, respectively. The molecule also came in with a CC50 in data set [3] of more than 200000 nM.

`CC(C)N1CCN(c2ccc([N+](=O)[O-])c(NC(c3ccccc3)c3ccccc3)c2)CC1` [MBX 3561, 1-(benzhydrylamino)-5-(4-isopropylpiperazin-1-yl)-2-nitrobenzene]: the figures for the IC50 in data set [1] and in data set [2] were 1500 nM and 1700 nM, respectively. In data set [3], this molecule showed a CC50 of 63000 nM.

As to `CN1CCN(c2ccc([N+](=O)[O-])c(NC(C)(C)c3ccccc3)c2)CC1` [MBX 3741, 2-(2-phenylpropan-2-ylamino)-4-(4-methylpiperazin-1-yl)-1-nitrobenzene], the half-inhibitory concentration (IC50) was found to be 3100 nM in data set [1] and 10300 nM in data set [2]. Moreover, in data set [3], the CC50 turned out to be 85000 nM.

For the molecule `CCCN1CCN(c2ccc([N+](=O)[O-])c(NC(c3ccccc3)c3ccccc3)c2)CC1` [MBX 3566, 1-(benzhydrylamino)-5-(4-propylpiperazin-1-yl)-2-nitrobenzene], the IC50 worked out at 2400 nM in data set [1] and 1600 nM in data set [2]. Further, the CC50 in data set [3] is more than 200000 nM.

`O=[N+]([O-])c1ccc(N2CCN(Cc3ccsc3)CC2)cc1NC(c1ccccc1)c1ccccc1` [MBX 3577, 1-(benzhydrylamino)-5-[4-(thiophen-3-ylmethyl)piperazin-1-yl]-2-nitrobenzene]: the IC50 in data set [1] is 6500 nM; in data set [2] it was more than 20000 nM. The molecule also had a CC50 in data set [3] of more than 200000 nM.

In the case of `O=[N+]([O-])c1ccc(N2CCN(C3CCCC3)CC2)cc1NC(c1ccccc1)c1ccccc1` [MBX 3580, 1-(benzhydrylamino)-5-(4-cyclopentylpiperazin-1-yl)-2-nitrobenzene], the values for the IC50 in data set [1] and in data set [2] were 1800 nM and 2700 nM, respectively. The CC50 in data set [3] is more than 100000 nM.

For `Cc1ccccc1C(Nc1cc(N2CCN(C)CC2)ccc1[N+](=O)[O-])c1ccccc1` (stereo not drawn) [MBX 3633, 2-[phenyl(o-tolyl)methylamino]-4-(4-methylpiperazin-1-yl)nitrobenzene], the figures for the IC50 in data set [1] and in data set [2] were 1500 nM and 1300 nM, respectively. This molecule also showed a CC50 in data set [3] of 15000 nM.

As to `CN1CCN(c2ccnc(NC(c3ccccc3)c3ccccc3)c2)CC1` [MBX 3586, 2-(benzhydrylamino)-4-(4-methylpiperazin-1-yl)pyridine], the results for the IC50 in data set [1] and in data set [2] were 7000 nM and 2600 nM, respectively. In addition, the CC50 in data set [3] was 70000 nM.
